Laboratory results from patent publication US9346767B2, “Substituted pyrazines and a process for producing the same” (JNC CORPORATION, priority 2011, dated 2016).

Tests used:
[1] = target: T1, Renilla luciferase-547 (Renilla reniformis, UniProt P27652, A123S/A143M/A55T/C124A/D154A/D162E/E155G/F262W/I163V/K136R/M185V/M253L/S130A/S287L); assay: Measurement of emission spectrum with Renilla luciferase-547; assay type: biochemical; settings: Renilla luciferase-547, 5 μg substrate, 50 mM Tris-HCl (pH 7.6)-10 mM EDTA, 22-25° C.
T1 construct: His6 with pCold-II leader (MNHKVHHHHHHMELG...) (N); made in house; host or cells: Escherichia coli BL21
T1 sequence (P27652 other isoform, or with tags, fused parts or gaps with the stated changes): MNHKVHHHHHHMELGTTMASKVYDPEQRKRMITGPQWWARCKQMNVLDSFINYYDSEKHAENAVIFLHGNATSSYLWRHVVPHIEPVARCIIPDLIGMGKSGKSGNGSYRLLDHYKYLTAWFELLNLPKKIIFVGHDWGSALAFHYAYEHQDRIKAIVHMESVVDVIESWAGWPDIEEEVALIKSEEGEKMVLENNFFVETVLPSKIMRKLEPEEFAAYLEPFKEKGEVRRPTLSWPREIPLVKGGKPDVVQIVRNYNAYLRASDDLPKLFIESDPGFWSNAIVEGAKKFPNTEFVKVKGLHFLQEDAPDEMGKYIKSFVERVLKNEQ
Description: (§1) The luminescence reaction was initiated by adding luciferase to 1 mL of 50 mM Tris-HCl (pH 7.6)-10 mM EDTA containing 5 μg (1 μg/μL) of substrate coelenterazine or ν-coelenterazine dissolved in ethanol. The protein amounts of luciferases used were Renilla luciferase: 1.5 μg and Renilla luciferase-547: 7.2 μg in the case of coelenterazine as substrate. On the other hand, the protein amounts in ν-coelenterazine as substrate were Renilla luciferase: 14.7 μg and Renilla luciferase-547: 35.8 μg. Luminescence spectra were measured in a quartz cell with a 10 mm optical path under the conditions of band width: 20 nm, sensitivity: medium, scan speed: 2000 nm/min and 22-25° C., using a fluorescence spectrophotometer FP-6500 (manufactured by JASCO) with the excitation light source turned off.

[2] = target: T2, Renilla luciferase (Renilla reniformis, UniProt P27652); assay: Measurement of luminescence activity with Renilla luciferase; assay type: biochemical; parameters: His tag (from vector pCold-II; inferred from the nickel-chelate purification and the vector) (N); made in house; host or cells: Escherichia coli BL21; settings: Renilla luciferase 2.94 ng, 0.05 μg substrate, 30 mM Tris-HCl (pH 7.6)-10 mM EDTA; relative to coelenterazine
T2 sequence (P27652 1-311): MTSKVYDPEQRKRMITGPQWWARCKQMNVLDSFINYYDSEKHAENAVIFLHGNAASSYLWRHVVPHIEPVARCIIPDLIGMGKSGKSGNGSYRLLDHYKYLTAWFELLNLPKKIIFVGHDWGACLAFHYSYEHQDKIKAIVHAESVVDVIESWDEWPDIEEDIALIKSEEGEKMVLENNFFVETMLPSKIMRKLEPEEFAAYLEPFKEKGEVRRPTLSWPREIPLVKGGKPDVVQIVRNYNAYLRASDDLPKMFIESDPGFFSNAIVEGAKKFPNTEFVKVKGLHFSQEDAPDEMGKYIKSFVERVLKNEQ
Description: After Renilla luciferase (2.94 ng) or Renilla luciferase-547 (14.3 ng) was dispensed into a 96-well microplate (manufactured by Nunc) in an amount of 10 μL/well, 0.1 mL of 30 mM Tris-HCl (pH 7.6)-10 mM EDTA containing 0.05 μg of coelenterazine or ν-coelenterazine was injected into the wells thereby to initiate the luminescence reaction, and the luminescence intensity was measured using a luminescence plate reader Centro LB960 (manufactured by Berthold). The luminescence intensity was measured for 60 seconds 3 times in 0.1 second intervals, and the maximum luminescence intensity (Imax) and the mean (rlu) from luminescence integrated for 60 seconds were expressed in terms of relative activity (%) (TABLE 2).

[3] = target: T2, Renilla luciferase; assay: Measurement of emission spectrum with Renilla luciferase; assay type: biochemical; parameters: His tag (from vector pCold-II; inferred from the nickel-chelate purification and the vector) (N); made in house; host or cells: Escherichia coli BL21; settings: for Emission Maximum λmax / Emission spectrum half bandwidth: Renilla luciferase, 5 μg substrate, 50 mM Tris-HCl (pH 7.6)-10 mM EDTA, 22-25° C.; for shift of maximum emission wavelength (in words): summary of EXAMPLES, Renilla luciferase and Renilla luciferase-547
Description: as §1

[4] = target: T2, Renilla luciferase; settings: substrate for Renilla luciferase, cited from earlier work

| SMILES | Emission Maximum λmax [1] | Emission spectrum half bandwidth [1] | Luminescence integrated for 60 seconds (Int.), relative activity [2] | Maximum Luminescence Intensity Imax, relative activity [2] | Emission Maximum λmax [3] | Emission spectrum half bandwidth [3] | shift of maximum emission wavelength (in words) [3] | part of emission spectrum distribution reaching the near-infrared region (>700 nm) [4] | shift of maximum emission wavelength toward the longer wavelength side ([4]; from 475 nm) | maximum emission wavelength ([4]; green emission) |
| --- | --- | --- | --- | --- | --- | --- | --- | --- | --- | --- |
| O=c1c(Cc2ccc(O)cc2)nc2c(Cc3ccccc3)[nH]c(-c3ccc(O)cc3)cn1-2 [Coelenterazine, coelenterazine, reference compound] | 547.0 nm | 124 nm | 100 (100) % | 100 (100) % | 485.0 nm | 95 nm |  |  |  |  |
| O=c1c(Cc2ccc(C(F)(F)F)cc2)nc2c(Cc3ccccc3)[nH]c3c4ccc(O)cc4ccc3n1-2 [cf3-v-Coelenterazine, cf3-ν-coelenterazine] | 599.0 nm | 132 nm | 12.3% | 18.9% | 525.5 nm | 121 nm | shifted toward a longer wavelength side even relative to ν-coelenterazine |  |  |  |
| O=c1c(Cc2ccc(O)cc2)nc2c(Cc3ccccc3)[nH]c3c4ccc(O)cc4ccc3n1-2 [v-Coelenterazine, ν-Coelenterazine] | 593.0 nm | 130 nm | 47.3% | 71.8% | 519.0 nm | 105 nm | shifted toward a longer wavelength side relative to coelenterazine | ~5% | about 40 nm | 512 nm |
